“Also recorded” adds a separate entry of the source.
Experiments:
[1] = test system: mCherry reporter in Jurkat T cells; assay: Loss of function TIMs mutants in GZV-synZiFTR2.0; type: cell-based; conditions: GZV induction, 3 days, compared to GZV-synZiFTR2.0 carrying WT TIMs
From the text: FIG. 4A-4B. IWS1 TIMs mechanism of action. (FIG. 4A) IWS1 mutants affecting TIMs employed in this study. WT TIMs domain in GZV-synZiFTR2.0 were replaced by TIMs structural mutant variants (see e.g., SEQ ID NOs: 5-14). The amino acid sequence of the TIMs domain is shown (see e.g., SEQ ID NO: 5). The boxes highlight each of the 3 TIM amino acid sequences (see e.g., SEQ ID NOs: 6-8) and the mutants respectively (see e.g., SEQ ID NOs: 12-14). Different TIM mutations caused loss of interactions with various transcription elongation factors (Transcription factor IIS (TFIIS) and Elongin A (EloA) for the TIM1 mutant; Protein Phosphatase 1 Nuclear Targeting Subunit (PP1-PNUTs) for the TIM2 mutant; lens epithelium-derived growth factor (LEDGF) and H3K36me2/3 binding protein HDGFL2 (HRP2) for the TIM3 mutant). Figure discloses SEQ ID NOS 5-6, 12, 6, 6-7, 7, 13, 7-8, 8, 8, and 14, respectively, in order of appearance. (FIG. 4B) Evaluating loss of function TIMs mutations. GZV-synZiFTR2.04 distinct mutant variants of TIMs were expressed in Jurkat T cells. The circuit outputs were compared to GZV-synZiFTR2.0 carrying WT TIMs. Jurkat T cells were co-transduced with reporter, synZiFTR2.0 and synZiFTR expression lentiviral vectors in an equal ratio. mCherry fluorescence was measured by flow cytometry 3 days after induction by small molecules at the indicated concentrations. Bars represent mean values for three measurements±SD. Statistics represent two-tailed Student's t test; ****P<0.0001.
The TIMs domain contains a series of three unique TIMs that selectively interact with different TND-containing factors. TIM1 interacts with Transcription Factor IIS (TFIIS) and Elongin A (EloA), TIM2 is recognized by the PP1-PNUTS phosphatase, and finally the H3K36me3 readers, lens epithelium-derived growth factor (LEDGF), and H3K36me2/3 binding protein HDGFL2 (HRP2) bind to TIM3. Here, it was investigated which direct interactions between each TIMs and their protein partner is involved in the enhanced transcriptional output by synZiFTR2.0s. […]

[2] = test system: iCasp9+ cells; conditions: cited from earlier work
[3] = among 2A peptides; cited from earlier work
[4] = test system: mCherry fluorescent reporter in Jurkat T cells; assay: hhTAD transcription activators, mCherry reporter in Jurkat T cells; type: cell-based; conditions: 1 uM GZV or 4-OHT, 72h, compared with p65 and VPR counterparts
From the text: FIG. 6A is a schematic and bar graph showing that the IWS1 TIMs domain increases transcriptional activation in an NS3-comprising synTF in the presence of grazoprevir. FIG. 6B is a schematic and bar graph showing that the IWS1 TIMs domain increases transcriptional activation in an ERT2-comprising synTF in the presence of 4OHT.
The humanized hybrid transcription activator domain (see e.g., SEQ ID NOs: 15-16) when integrated into small-molecule inducible transcriptional activation systems is able to robustly and strongly induce transgene expression in mammalian cells. The humanized hybrid transcription activation domain (hhTAD) was attached to an artificial zinc finger proteins (see e.g., U.S. Pat. No. 10,138,493 B2 and US Patent Publication No. 2020/0377564 A1; the contents of each of which are incorporated herein by reference in their entirety) to either a NS3 or ERT2 domain (see e.g., FIG. 5A). To report transcriptional activation, described herein is a […] mCherry fluorescent reporter (see e.g., FIG. 5B). […]
To evaluate the strength of this hhTAD, Jurkat T cells were generated stably expressing both the transcription activator(s) modified with the hhTAD and fluorescent reporter. […] Reporter cells with were treated 1 uM GZV or 4-OHT, and mCherry reporter fluorescence was measured at 72h (see e.g., FIG. 6A-6B).

## M3: TIM3 mutant, F488A and F491A, SEQ ID NO: 11, in GZV-synZiFTR2.0 (SDKKNEEKDLFGSDSESGNEEENLIADIFGESGDEEEEEATGAN)
[1]
  mCherry fluorescence output: did not affect GZV-synZiFTR2.0 output

## CC[C@H](C(=O)N1CCCC[C@H]1C(=O)O[C@H](CCc1ccc(OC)c(OC)c1)c1cccc(OCC(=O)NCCNC(=O)COc2cccc([C@@H](CCc3ccc(OC)c(OC)c3)OC(=O)[C@@H]3CCCCN3C(=O)[C@@H](CC)c3cc(OC)c(OC)c(OC)c3)c2)c1)c1cc(OC)c(OC)c(OC)c1 [AP1903]
[2]; patients receiving iCasp9 T cells
  GvHD outcome after AP1903: complete reversal of GvHD; also recorded: Two of the four patients
[2]; phase I trial, four patients with acute GvHD, within 30 minutes of administration
  reduction in iCasp9+ cells: 90%

## P2A: 2A self-cleaving peptide derived from porcine teschovirus-1 2A, SEQ ID NO: 341 (GSGATNFSLLKQAGDVEENPGP; VARIANT 1..3 May be absent)
[3]
  efficiency of self-cleaving: most efficient

## M1: TIM1 mutant, L458A and F459A, SEQ ID NO: 9, in GZV-synZiFTR2.0 (SDKKNEEKDAAGSDSESGNEEENLIADIFGESGDEEEEEFTGFN)
[1]
  mCherry fluorescence output: did not affect GZV-synZiFTR2.0 output

## IWS1 TIMs domain: amino acids 449-492 of IWS1, SEQ ID NO: 5, 44 aa; transcriptional effector domain
[4]
  mCherry reporter fluorescence: increases their transcriptional activation

## M2: TIM2 mutant, I476A and F477A, SEQ ID NO: 10, in GZV-synZiFTR2.0 (SDKKNEEKDLFGSDSESGNEEENLIADAAGESGDEEEEEFTGFN)
[1]
  mCherry fluorescence output: ablated the mCherry fluorescence output by TIMs-p65 fusion
